Laboratory results reported in the kinase profiling compilation of Christmann-Franck et al. (2016).

Key:
Test in all cases: KINOMEscan competition binding
Conditions in all cases: compound 10.0 µM
[1] = biological target: CSNK1D (human) (UniProt P48730)
[2] = biological target: MKNK2 (human) (UniProt Q9HBH9)
[3] = biological target: STK32A (human) (UniProt Q8WU08)
[4] = biological target: PLK1 (human) (UniProt P53350)
[5] = biological target: GSK3A (human) (UniProt P49840)
[6] = biological target: ULK3 (human) (UniProt Q6PHR2)
[7] = biological target: RPS6KA5 KD2 (human) (UniProt O75582)
[8] = biological target: PDGFRA (human) (UniProt P16234)
[9] = biological target: HIPK4 (human) (UniProt Q8NE63)
[10] = biological target: MYLK2 (human) (UniProt Q9H1R3)
MYLK2 (human), sequence (Q9H1R3 whole entry, looked up): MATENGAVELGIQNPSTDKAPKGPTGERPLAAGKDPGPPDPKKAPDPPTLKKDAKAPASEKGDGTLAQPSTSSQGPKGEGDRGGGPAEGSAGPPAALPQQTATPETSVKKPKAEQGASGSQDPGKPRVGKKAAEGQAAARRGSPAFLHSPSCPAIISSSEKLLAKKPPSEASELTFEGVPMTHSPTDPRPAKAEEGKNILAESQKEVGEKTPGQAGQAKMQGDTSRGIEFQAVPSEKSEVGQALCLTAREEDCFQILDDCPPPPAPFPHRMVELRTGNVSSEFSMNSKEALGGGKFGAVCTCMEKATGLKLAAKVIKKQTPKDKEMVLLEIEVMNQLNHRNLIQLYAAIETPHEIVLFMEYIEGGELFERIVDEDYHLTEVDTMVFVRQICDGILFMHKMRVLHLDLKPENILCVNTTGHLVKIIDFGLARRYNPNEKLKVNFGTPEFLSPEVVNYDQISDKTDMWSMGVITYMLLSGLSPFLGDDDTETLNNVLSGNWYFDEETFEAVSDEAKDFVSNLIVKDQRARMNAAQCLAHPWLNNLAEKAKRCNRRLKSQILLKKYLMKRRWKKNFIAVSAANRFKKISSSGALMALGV

[11] = tested on: CPK1 (P.falciparum)
[12] = biological target: LIMK1 (human) (UniProt P53667)
[13] = biological target: PLK3 (human) (UniProt Q9H4B4)
[14] = biological target: HCK (human) (UniProt P08631)
[15] = biological target: LYN (human) (UniProt P07948)
[16] = tested on: KIT (human), P10721 [D816H]
KIT (human), P10721 [D816H], sequence (P10721 whole entry D816H, looked up): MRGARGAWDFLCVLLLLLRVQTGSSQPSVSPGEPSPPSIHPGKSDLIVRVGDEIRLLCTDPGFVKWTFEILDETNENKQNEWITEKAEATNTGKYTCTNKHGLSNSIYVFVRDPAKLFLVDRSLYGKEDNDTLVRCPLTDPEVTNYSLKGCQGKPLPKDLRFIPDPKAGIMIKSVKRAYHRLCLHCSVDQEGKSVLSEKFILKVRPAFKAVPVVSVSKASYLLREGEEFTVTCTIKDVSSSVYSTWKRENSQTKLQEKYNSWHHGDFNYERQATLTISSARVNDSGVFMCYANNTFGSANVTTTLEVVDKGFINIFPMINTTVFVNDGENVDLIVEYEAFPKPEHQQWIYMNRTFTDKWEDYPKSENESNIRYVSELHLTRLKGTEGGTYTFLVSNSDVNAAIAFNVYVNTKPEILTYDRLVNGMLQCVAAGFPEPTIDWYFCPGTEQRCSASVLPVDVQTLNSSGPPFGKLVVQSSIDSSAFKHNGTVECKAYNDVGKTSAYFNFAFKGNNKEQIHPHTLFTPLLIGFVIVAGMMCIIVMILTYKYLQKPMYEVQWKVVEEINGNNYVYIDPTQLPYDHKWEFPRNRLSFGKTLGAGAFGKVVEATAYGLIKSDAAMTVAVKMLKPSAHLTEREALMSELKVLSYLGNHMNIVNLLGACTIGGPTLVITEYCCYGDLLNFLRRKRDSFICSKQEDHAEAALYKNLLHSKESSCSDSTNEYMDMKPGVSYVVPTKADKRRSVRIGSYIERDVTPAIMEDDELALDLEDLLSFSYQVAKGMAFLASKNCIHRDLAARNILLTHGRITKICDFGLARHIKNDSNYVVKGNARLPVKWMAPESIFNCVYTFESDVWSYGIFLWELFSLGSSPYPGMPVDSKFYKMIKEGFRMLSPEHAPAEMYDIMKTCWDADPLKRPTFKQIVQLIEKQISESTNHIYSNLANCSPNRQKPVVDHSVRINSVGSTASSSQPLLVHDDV

[17] = biological target: CHEK1 (human) (UniProt O14757)
[18] = biological target: PRKG2 (human) (UniProt Q13237)
[19] = biological target: CIT (human) (UniProt O14578)
[20] = biological target: MAP3K5 (human) (UniProt Q99683)
[21] = biological target: CAMK1G (human) (UniProt Q96NX5)
CAMK1G (human), sequence (Q96NX5 whole entry, looked up): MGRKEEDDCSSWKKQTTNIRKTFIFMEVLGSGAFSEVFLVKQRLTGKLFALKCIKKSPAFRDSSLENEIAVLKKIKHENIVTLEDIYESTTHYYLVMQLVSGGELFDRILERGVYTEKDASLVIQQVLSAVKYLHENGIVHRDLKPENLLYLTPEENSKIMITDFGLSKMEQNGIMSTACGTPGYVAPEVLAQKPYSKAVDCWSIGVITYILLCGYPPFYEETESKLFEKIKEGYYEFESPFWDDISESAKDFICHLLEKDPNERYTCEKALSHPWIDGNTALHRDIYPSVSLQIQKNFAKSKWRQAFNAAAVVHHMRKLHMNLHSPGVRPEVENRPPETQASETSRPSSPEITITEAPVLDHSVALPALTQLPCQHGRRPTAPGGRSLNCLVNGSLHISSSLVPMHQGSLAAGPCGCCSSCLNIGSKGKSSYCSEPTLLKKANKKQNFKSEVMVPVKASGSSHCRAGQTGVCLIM

[22] = biological target: CAMK2G (human) (UniProt Q13555)
[23] = biological target: STK32B (human) (UniProt Q9NY57)
[24] = tested on: MET (human), P08581 [M1250T]
[25] = biological target: MAP3K6 (human) (UniProt O95382)
[26] = biological target: SGK3 (human) (UniProt Q96BR1)
[27] = biological target: PKMYT1 (human) (UniProt Q99640)
[28] = biological target: PRKCI (human) (UniProt P41743)
[29] = biological target: FLT4 (human) (UniProt P35916)
FLT4 (human), sequence (P35916 whole entry, looked up): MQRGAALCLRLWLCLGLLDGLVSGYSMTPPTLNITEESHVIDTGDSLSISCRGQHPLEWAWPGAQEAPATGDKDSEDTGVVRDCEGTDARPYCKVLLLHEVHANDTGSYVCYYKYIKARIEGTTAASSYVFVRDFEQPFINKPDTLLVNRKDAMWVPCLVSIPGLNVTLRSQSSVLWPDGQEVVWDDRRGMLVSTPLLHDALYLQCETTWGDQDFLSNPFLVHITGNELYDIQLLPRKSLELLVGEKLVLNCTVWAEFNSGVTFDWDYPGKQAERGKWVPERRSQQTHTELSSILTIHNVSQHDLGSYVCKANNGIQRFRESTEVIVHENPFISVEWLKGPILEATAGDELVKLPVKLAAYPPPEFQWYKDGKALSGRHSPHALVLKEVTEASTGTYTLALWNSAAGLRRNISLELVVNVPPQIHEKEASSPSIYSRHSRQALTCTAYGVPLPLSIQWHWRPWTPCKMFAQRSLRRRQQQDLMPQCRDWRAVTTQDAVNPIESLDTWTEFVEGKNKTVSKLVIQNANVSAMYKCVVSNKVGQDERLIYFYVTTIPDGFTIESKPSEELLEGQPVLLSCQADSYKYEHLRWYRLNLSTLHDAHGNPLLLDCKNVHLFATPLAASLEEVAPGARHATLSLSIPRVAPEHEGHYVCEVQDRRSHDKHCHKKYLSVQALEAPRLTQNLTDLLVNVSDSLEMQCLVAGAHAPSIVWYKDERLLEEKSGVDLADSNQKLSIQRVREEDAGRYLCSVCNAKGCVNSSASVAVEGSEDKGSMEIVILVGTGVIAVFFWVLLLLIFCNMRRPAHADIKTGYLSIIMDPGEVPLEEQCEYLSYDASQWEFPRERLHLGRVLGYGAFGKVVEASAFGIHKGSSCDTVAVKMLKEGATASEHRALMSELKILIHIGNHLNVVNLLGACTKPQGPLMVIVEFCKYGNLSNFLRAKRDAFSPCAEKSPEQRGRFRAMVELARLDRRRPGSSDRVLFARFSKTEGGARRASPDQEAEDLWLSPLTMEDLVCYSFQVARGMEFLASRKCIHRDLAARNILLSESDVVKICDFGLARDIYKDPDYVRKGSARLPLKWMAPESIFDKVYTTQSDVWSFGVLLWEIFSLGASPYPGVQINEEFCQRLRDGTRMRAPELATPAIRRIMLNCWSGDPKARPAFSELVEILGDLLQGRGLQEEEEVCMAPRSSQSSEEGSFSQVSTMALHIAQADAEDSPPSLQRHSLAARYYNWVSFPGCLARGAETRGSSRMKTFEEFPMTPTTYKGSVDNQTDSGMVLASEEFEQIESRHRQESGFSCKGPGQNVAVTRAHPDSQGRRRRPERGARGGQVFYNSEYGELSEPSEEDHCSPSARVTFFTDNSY

[30] = biological target: IRAK1 (human) (UniProt P51617)
IRAK1 (human), sequence (P51617 whole entry, looked up): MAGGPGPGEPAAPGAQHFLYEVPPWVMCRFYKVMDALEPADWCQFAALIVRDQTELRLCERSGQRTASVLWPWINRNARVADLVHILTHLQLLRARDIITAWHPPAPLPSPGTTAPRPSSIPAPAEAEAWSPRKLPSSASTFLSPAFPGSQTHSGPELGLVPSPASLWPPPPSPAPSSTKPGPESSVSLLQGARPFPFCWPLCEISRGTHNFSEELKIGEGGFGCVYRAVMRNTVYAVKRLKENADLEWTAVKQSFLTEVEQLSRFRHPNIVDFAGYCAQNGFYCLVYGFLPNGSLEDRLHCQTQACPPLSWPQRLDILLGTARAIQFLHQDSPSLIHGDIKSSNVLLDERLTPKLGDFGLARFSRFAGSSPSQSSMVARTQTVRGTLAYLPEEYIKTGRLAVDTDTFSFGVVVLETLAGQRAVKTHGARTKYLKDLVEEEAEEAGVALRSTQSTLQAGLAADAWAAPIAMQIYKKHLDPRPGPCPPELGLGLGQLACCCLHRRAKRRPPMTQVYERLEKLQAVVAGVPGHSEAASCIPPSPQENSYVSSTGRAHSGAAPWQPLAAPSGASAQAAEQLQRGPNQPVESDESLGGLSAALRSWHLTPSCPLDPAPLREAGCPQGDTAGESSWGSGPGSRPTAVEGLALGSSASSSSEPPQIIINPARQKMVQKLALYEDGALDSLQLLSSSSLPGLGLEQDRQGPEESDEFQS

[31] = biological target: MYLK (human) (UniProt Q15746)
[32] = biological target: MET (human) (UniProt P08581)
[33] = biological target: EPHB3 (human) (UniProt P54753)
[34] = biological target: RET (human) (UniProt P07949)
[35] = biological target: CDKL1 (human) (UniProt Q00532)
[36] = biological target: CDK3 (human) (UniProt Q00526)
[37] = biological target: LATS2 (human) (UniProt Q9NRM7)
[38] = biological target: MAPK7 (human) (UniProt Q13164)
[39] = biological target: SNRK (human) (UniProt Q9NRH2)
SNRK (human), sequence (Q9NRH2 whole entry, looked up): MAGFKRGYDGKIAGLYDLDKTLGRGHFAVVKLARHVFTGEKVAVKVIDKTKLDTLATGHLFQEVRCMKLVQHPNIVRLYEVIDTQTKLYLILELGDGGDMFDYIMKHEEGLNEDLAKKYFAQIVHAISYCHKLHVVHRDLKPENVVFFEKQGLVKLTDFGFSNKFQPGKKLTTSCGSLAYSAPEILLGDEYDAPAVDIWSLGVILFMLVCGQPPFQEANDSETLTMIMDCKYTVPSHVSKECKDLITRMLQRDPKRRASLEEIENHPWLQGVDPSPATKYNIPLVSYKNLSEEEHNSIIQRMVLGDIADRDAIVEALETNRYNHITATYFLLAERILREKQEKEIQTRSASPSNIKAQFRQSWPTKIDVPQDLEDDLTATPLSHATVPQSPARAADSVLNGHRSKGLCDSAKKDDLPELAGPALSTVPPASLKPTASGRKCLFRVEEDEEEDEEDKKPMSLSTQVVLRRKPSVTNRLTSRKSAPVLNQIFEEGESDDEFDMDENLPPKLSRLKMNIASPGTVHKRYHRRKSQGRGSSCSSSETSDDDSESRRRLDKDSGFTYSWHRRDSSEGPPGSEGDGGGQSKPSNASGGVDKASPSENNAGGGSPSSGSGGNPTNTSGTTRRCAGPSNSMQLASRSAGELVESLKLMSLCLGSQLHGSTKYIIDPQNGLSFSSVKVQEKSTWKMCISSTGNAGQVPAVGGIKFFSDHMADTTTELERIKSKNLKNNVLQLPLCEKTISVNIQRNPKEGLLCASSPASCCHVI

[40] = biological target: ROS1 (human) (UniProt P08922)
[41] = biological target: PKN2 (human) (UniProt Q16513)

## CCCS(=O)(=O)Nc1ccc(F)c(C(=O)c2c[nH]c3ncc(Cl)cc23)c1F
[1]
  kinase still bound, per cent of control: 91%
[2]
  kinase still bound, per cent of control: 84%
[3]
  kinase still bound, per cent of control: 85%
[4]
  kinase still bound, per cent of control: 100%
[5]
  kinase still bound, per cent of control: 100%
[6]
  kinase still bound, per cent of control: 60%
[7]
  kinase still bound, per cent of control: 86%
[8]
  kinase still bound, per cent of control: 0.2%
[9]
  kinase still bound, per cent of control: 34%
[10]
  kinase still bound, per cent of control: 64%
[11]
  kinase still bound, per cent of control: 0%
[12]
  kinase still bound, per cent of control: 46%
[13]
  kinase still bound, per cent of control: 96%
[14]
  kinase still bound, per cent of control: 19%
[15]
  kinase still bound, per cent of control: 24%
[16]
  kinase still bound, per cent of control: 93%
[17]
  kinase still bound, per cent of control: 82%
[18]
  kinase still bound, per cent of control: 93%
[19]
  kinase still bound, per cent of control: 66%
[20]
  kinase still bound, per cent of control: 74%
[21]
  kinase still bound, per cent of control: 76%
[22]
  kinase still bound, per cent of control: 96%
[23]
  kinase still bound, per cent of control: 100%
[24]
  kinase still bound, per cent of control: 78%
[25]
  kinase still bound, per cent of control: 96%
[26]
  kinase still bound, per cent of control: 49%
[27]
  kinase still bound, per cent of control: 100%
[28]
  kinase still bound, per cent of control: 100%
[29]
  kinase still bound, per cent of control: 61%
[30]
  kinase still bound, per cent of control: 60%
[31]
  kinase still bound, per cent of control: 79%
[32]
  kinase still bound, per cent of control: 77%
[33]
  kinase still bound, per cent of control: 100%
[34]
  kinase still bound, per cent of control: 76%
[35]
  kinase still bound, per cent of control: 93%
[36]
  kinase still bound, per cent of control: 98%
[37]
  kinase still bound, per cent of control: 86%
[38]
  kinase still bound, per cent of control: 65%
[39]
  kinase still bound, per cent of control: 100%
[40]
  kinase still bound, per cent of control: 34%
[41]
  kinase still bound, per cent of control: 100%
